Assay results reported in US7393834B2, “LHRH-antagonists in the treatment of fertility disorders” (AEterna Zentaris GmbH, priority 1996, dated 2008).
“Also recorded” adds a separate entry of the source. Where a SMILES comes first, the peptide text is derived from it. [ ]: non-standard residue; d: D form. dPhe(4-Cl) = N[C@H](Cc1ccc(Cl)cc1)C(=O)O; d2Nal = N[C@H](Cc1ccc2ccccc2c1)C(=O)O; dCit = NC(=O)NCCC[C@@H](N)C(=O)O; d3Pal = N[C@H](Cc1cccnc1)C(=O)O

Legend:
premature LH surge = experiment: Phase II clinical trial of Cetrorelix in controlled ovarian stimulation (COS/ART); type: in vivo, human; settings: for babies born by the end of May 1996: by end of May 1996; for minimal effective dose, Dose/Day / no effect dose, Dose/Day: phase II dose finding
Protocol: The results of a phase II clinical trial are shown in Table I. A total of […] patients were treated.
During multiple dosing, the mean days of Cetrorelix application is 6 days. 25 babies were born by the end of May 1996 (7 following multiple doses; 18 following single/dual doses).
The hormone levels of luteinizing hormone (LH) (μg/l) (∘), follicular stimulating hormone (FSH) (μg/l) (+), progesterone (μg/l) (●), and oestradiol (E2) (ng/l) (▾) were measured in patient number 21L07 at time intervals one month (Nov. 10, 1995) and four consecutive days before (Dec. 05, 1995-Dec. 09, 1995) a dual dose regimen of Cetrorelix (3 mg) was administered subcutaneously on Dec. 10, 1995 and Dec. 11, 1995. The patient's LH, FSH, progesterone and oestradiol levels were measured afterward between Dec. 11, 1995 and Dec. 14, 1995 wherein ovulation in the patient was induced with human chorionic gonadotrophin (HCG) on Dec. 14, 1995. The patients LH, FSH, progesterone, and oestradiol levels were also measured after HCG treatment through ovum pick up (OPU; Dec. 16, 1995), and embryo transfer (ET) on […]. Hormone levels were also measured on the 4th and (Dec. 22, 1995) and 16th day after ET(Jan. 3,1996).
238 patients were treated with Cetrorelix by subcutaneous injection of Cetrorelix Acetat-Lyophilisat.
134 patients were treated with multiple doses and 104 patients with single or dual doses. The multiple doses are 0.25 mg/day or higher. […]

[1] = tested on: controlled ovarian stimulation (COS); experiment: Combination of Cetrorelix, clomifen citrate and gonadotrophins for hormonal stimulation for IVF/ICSI; type: in vivo, human; settings: for fertilization rates: ICSI
Protocol: Combination of the GnRH antagonist Cetrorelix, clomifen citrate(CC) and gonadotrophins for hormonal stimulation for IVF/ICSI. New controlled ovarian stimulation (COS) protocols become possible, which combine the advantages of clomifen citrate/gonadotrophin stimulation and pituitary suppression with Cetrorelix. COS was started on day 2 after spontaneous menstrual bleeding using 100 mg CC per day for 5 or 7 days. The antagonist Cetrorelix (0.25 mg s.c.) was given starting on stimulation day 6 combined with either urinary hMG or recombinant FSH (3 ampoules/d) in a prospective randomized way. After two days of gonadotrophin injection, the dose was individualized. Human chorionic gonadotropin was given for ovulation induction, if at least 3 follicles were ≧17 mm in diameter. In total, 30 patients were included in the study. 15 were randomized in each group. Intra cytoplasmatic sperm injection (ICSI) was applied in each case.

[2] = tested on: follicular growth / pituitary; experiment: Animal experiments and clinical studies with Cetrorelix in normal, unstimulated cycles; type: in vivo
Source text: These low dosage levels present new possibilities for manipulating the time of ovulation during a normal, not exogenous gonadotropin-stimulated cycle, without affecting the viability of the growing follicle. In case of inadequate follicular growth related to treatment with LHRH-antagonists, low dose and short term administration of gonadotrophin or other trophic compounds will compensate for these effects. Subsequently, by stopping the LHRH-antagonist treatment, it is possible to let the normal ovulation occur or to induce ovulation by exogenous manipulation, if necessary. Ovulation induction was induced by the administration of standard HCG or by administration of LHRH and/or LHRH agonistic analogs. These described treatment alternatives are a departure from existing protocols, since they are possible only if preceded by treatment for LH-surge-control with an LHRH-antagonist. In animal and clinical studies with Cetrorelix it was shown that the responsiveness of the pituitary to LHRH or agonistic analogs is preserved under these conditions of treatment. Without this treatment, the pituitary cannot respond after agonistic pretreatment for LH-surge control due to receptor down-regulation. In addition, the possible use of ovulation inducing agents other than HCG results in a-reduced incidence of ovarian hyperstimulation syndrome.

premature LH surges = settings: short term treatment, first clinical trials; cited from earlier work
[3] = all phase II patients, both regimens
[4] = single patient, dual dose regimen of 3 mg s.c.

For `CC(=O)N[C@H](Cc1ccc2ccccc2c1)C(=O)N[C@H](Cc1ccc(Cl)cc1)C(=O)N[C@H](Cc1cccnc1)C(=O)N[C@@H](CO)C(=O)N[C@@H](Cc1ccc(O)cc1)C(=O)N[C@H](CCCNC(N)=O)C(=O)N[C@@H](CC(C)C)C(=O)N[C@@H](CCCNC(=N)N)C(=O)N1CCC[C@H]1C(=O)N[C@H](C)C(N)=O` [Cetrorelix] (Ac-[d2Nal][dPhe(4-Cl)][d3Pal]SY[dCit]LRP[dA]-NH2), the “fertilization rates, follicle and oocytes quality” value (premature LH surge; after both posologies (single and multiple dose)) was “good fertilization rates”, the pregnancy rates (premature LH surge; after both treatments (single and multiple dose)) was “good” and the “babies born by the end of May 1996” value (premature LH surge; all patients) was 25. The “pregnancies obtained (number)” value (premature LH surge; [3]) was 71 pregnancies, the “pregnancies obtained (rate)” value (premature LH surge; [3]) was 30% and the babies born (premature LH surge; following multiple doses) was 15. The “babies born by the end of May 1996” value (premature LH surge; following multiple doses) was 7, the babies born (premature LH surge; following single/dual doses) was 29 and the “babies born by the end of May 1996” value (premature LH surge; following single/dual doses) was 18. The “pregnancies (rate)” value (premature LH surge; multiple dose regimen, 134 patients) was 28.4%, the “pregnancies (number)” value (premature LH surge; multiple dose regimen, of 134 patients) was 38 and the “minimal effective dose, Dose/Day” value (premature LH surge; multiple dose, 3-7/14 days) was 0.25 min. effect, dose mg. For the same compound, the “no effect dose, Dose/Day” value (premature LH surge; multiple dose, 3-7/14 days) was 0.10 no effect. dose mg, the “premature LH surge” value (premature LH surge; patients undergoing COS/ART, multiple doses of 0.25 mg or higher or single dose of 3 mg or higher, s.c.) was “prevention of any premature LH surge; also recorded: No premature LH surge” and the “minimal effective dose, Dose/Day” value (premature LH surge; single dose (1 day)) was 3 min. effective dose mg. For the same compound, the “no effect dose, Dose/Day” value (premature LH surge; single dose (1 day)) was 2 no effect. Dose mg, the “duration of effect to prevent a premature LH surge” value (premature LH surge; single dose regimen, one injection of 3 mg) was “up to 6.5 days” and the “FSH secretion (FIG. 1)” value (premature LH surge; [4]) was “maintained at a natural level”. The “individual estrogen development (FIG. 1)” value (premature LH surge; [4]) was “not affected”, the “premature LH surge (FIG. 1)” value (premature LH surge; [4]) was “absolute prevention of any premature LH surge” and the “pregnancies (rate)” value (premature LH surge; single/dual dosage regimen, 104 patients) was 31.7%. For the same compound, the “pregnancies (number)” value (premature LH surge; single/dual dosage regimen, of 104 patients) was 33, the “ovarian hyperstimulation syndrome (OHSS)” value ([1]; 30 patients, both groups) was “no case of OHSS was observed” and the clinical pregnancy rate/transfer ([1]; hMG group) was 4/14. The “metaphase II oocytes” value ([1]; hMG group) was 74%, the “oocytes per cycle retrieved” value ([1]; hMG group) was 7.7±3.8 and the transfer rate/cycle ([1]; hMG group) was 87%. The fertilization rates ([1]; hMG group) was 42%, the clinical pregnancy rate/transfer ([1]; recombinant FSH group) was 1/11 and the “metaphase II oocytes” value ([1]; recombinant FSH group) was 80%. For the same compound, the “oocytes per cycle retrieved” value ([1]; recombinant FSH group) was 6.4±2.6, the transfer rate/cycle ([1]; recombinant FSH group) was 80% and the fertilization rates ([1]; recombinant FSH group) was 53%. The “normal, unstimulated follicular growth” value ([2]; multiple or single injections, extremely low dosage levels) was “arrest of the normal, unstimulated follicular growth”, the “responsiveness of the pituitary to LHRH or agonistic analogs” value ([2]; under LH-surge-control treatment with the antagonist) was “preserved” and the “premature LH surges during stimulated cycles” value (premature LH surges) was “complete avoidance of premature LH surges”.
